US8410170B2, “Use of isothiocyanates compounds in treating prostatic diseases and skin cancer” (Wuxi JC Pharmaceutical Technology Co., Ltd., priority 2005, dated 2013)
pIC50: −log10 of the molar value. Entries after “also recorded” stand apart in the source; their conditions may differ.

Key:
[1] = In vitro dissolution (paddle method, HPLC); assay type: physicochemical; settings: 500 ml water, 37° C., 45 min, paddle 200 r/min
Experimental: Dissolution Measurement: Dissolution rates of the compositions were measured according to the procedures described in the Chinese Pharmacopeia 2005, Appendix XC, Method 2: Paddle Determination. Briefly, samples are added into 500 ml of de-aired, and deionized water which is kept at 37±0.5° C. for 45 min while the paddle rotates at 200 r/min. Take samples and let the sample be passed through the 0.8 μm filter membrane, and analyzed by HPLC. The dissolution rate was then calculated.

Sp1 [2] = biological target: T1, Sp1 (Homo sapiens, UniProt P08047); assay: Mobility gel shift assay (EMSA) of Sp1-DNA binding; assay type: cell-based; settings: AD cells exposed 24 hrs
T1 construct: endogenous in cells; host or cells: LNCaP AD cells, nuclear extract
T1 sequence (P08047 whole entry): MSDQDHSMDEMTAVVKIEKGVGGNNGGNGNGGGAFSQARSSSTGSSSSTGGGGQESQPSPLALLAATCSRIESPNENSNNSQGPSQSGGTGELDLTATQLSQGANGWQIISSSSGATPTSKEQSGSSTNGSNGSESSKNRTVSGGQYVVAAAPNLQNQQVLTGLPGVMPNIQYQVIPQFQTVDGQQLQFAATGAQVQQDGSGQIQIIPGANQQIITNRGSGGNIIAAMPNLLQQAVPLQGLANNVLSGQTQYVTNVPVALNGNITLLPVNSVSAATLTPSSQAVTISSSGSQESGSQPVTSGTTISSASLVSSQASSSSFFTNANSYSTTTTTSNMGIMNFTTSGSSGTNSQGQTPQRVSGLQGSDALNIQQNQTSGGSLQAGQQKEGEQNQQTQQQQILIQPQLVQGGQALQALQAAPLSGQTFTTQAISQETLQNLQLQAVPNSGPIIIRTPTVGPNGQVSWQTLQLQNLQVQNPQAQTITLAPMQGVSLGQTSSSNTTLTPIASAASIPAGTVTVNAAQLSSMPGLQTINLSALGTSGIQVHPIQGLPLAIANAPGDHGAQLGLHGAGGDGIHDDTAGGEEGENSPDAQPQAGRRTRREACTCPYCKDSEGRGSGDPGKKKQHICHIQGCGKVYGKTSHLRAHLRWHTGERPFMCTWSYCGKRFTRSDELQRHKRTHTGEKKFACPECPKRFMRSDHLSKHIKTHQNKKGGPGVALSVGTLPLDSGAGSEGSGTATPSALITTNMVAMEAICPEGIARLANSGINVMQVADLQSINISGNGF
Experimental: EMSA was performed according to modern technology. […] The extraction of nuclear proteins was performed as described previously (Wang, L. G., Liu, X. M., Kreis, W., and Budman, D. R. Down-regulation of prostate-specific antigen expression by finasteride through inhibition of complex formation between androgen receptor and steroid receptor-binding consensus in the promoter of the PSA gene in LNCaP cells. Cancer Res, 57: 714-719, 1997). Five μg of nuclear proteins was reacted for 30 minutes at room temperature with the [^32P]-labeled Sp1 oligonucleotide or their corresponding mutants oligonucleotide probe in binding buffer containing […] dIdC to increase the specificity of the reaction. The reaction mixtures were then subjected to electrophoresis in 8% native polyacrylamide gel(PAGE). The binding complexes were visualized by exposing the dried gel to X-ray film.

LNCaP AI = assay: MTT growth inhibition, hormone independent LNCaP AI; assay type: cell-based; settings: Homo sapiens, LNCaP, 168 h, read-out: IC50, growth inhibition
Source text: The human prostate cancer cell line LNCaP AD was purchased from the American Type Culture Collection. LNCaP AI cell line was derived from LNCaP cells using a method described previously by Gao et al. (Gao, M., Ossowski, L., and Ferrari, A. C. Activation of Rb and decline in androgen receptor protein precede retinoic acid-induced apoptosis in androgen-dependent LNCaP cells and their androgen-independent derivative. J Cell Physiol, 179: 336-346, 1999). The AD and AI cells were maintained in RPMI-1640 with 10% fetal bovine serum (FBS) and charcoal stripped fetal bovine serum, penicillin-streptomycin for incubation at 5% CO2 and 37° C. respectively.
MTT: MTT and SRB method were used to determine the effects of various isothiocyanates on cell growth as described previously (Kreis, Budman et al, 1997). Briefly, human prostate cancer cell line LNCaP grown exponentially were aliquoted into 96-well plates at a density of 2500 cells/200 μl per well. Twenty-four hrs after the incubation, the cells were exposed for seven days to serial dilutions of indicated isothiocyanate or paclitaxel. […] The absorbance was measured at wavelength 540 nm. The percent of cell survival (T/C%) were calculated based on the results of test groups to that of the control group. […]

[3] = Stability testing of isothiocyanate compositions (60° C., HPLC); assay type: physicochemical; settings: sealed vials, day 10, HPLC
Experimental: Suitable amount of API (isothiocyanates, as control) and compositions were placed into clean vials, and sealed with rubber stoppers plus aluminum caps. All samples were stored at 60° C., and then assayed by a validated HPLC method at time day 0, day 5, and day 10.

PSA = assay: Western blot to detect PSA in LNCaP cells; assay type: cell-based, human; settings: 24 hrs
Experimental: (§1) The cells were harvested, washed and total cellular proteins were extracted as described previously (as Example 2). Fifty μg proteins were then subjected to electrophoresis in SDS-PAGE, electro-transferred to nitrocellulose filters, and immunoblotted initially with antibodies against AR, Sp1, and PSA. The same membranes were stripped and re-probed with β-actin for loading control. The result was recorded by ECL films.

GSTP1 = assay: Western blot to detect GSTP1 protein in LNCaP cells; assay type: cell-based, human; settings: LNCaP cells exposed 24 hrs
Experimental: Western blot to detect GSTP1 protein (FIG. 1): […] The cells were harvested, washed and total cellular proteins were extracted as described previously (Wang, […], et al. […] Cancer Res 61(20): 7544-51, 2001). Fifty μg cellular extracts were separated on a SDS-PAGE, electro-transferred to nitrocellulose filters, and immunoblotted initially with antibodies against GSTP1. The same membranes were stripped and re-probed with β-actin for loading control. The result was recorded by ECL films.

Sp1 [4] = assay: Western blot to detect Sp1 in LNCaP cells; assay type: cell-based, human; settings: 24 hrs
Experimental: as §1

BPH = assay: Therapeutic effects on BPH: Test One (castrated rats, testosterone propionate); assay type: in vivo, SD rats; settings: for Average Weight of Prostate: one month
Experimental: Sixty male SD rats were randomly divided into 6 groups, ten each. The animals were anesthetized using ketamine and castrated by removing testis under sterile conditions. After the surgery, the penicillin was injected to prevent the animals from infection. One week later, the testosterone propionate was injected subcutaneously at dose of 1 mg/rat for a month, once a day. Group 1 was served as a negative control group, and the animals of group 1 were given saline orally without any active pharmaceutical ingredient for a month beginning on the same day the testosterone propionate was injected. Group 2 was served as positive control group in which animals were given estradiol subcutaneously at a dose of 0.1 mg/rat for a month beginning on the same day the testosterone propionate was injected. Groups from 3 to 6 was served as drug treatment groups in which animals were given tested articles on the same day the testosterone propionate was injected.
Twenty-four hrs after the last dosage, the animals were euthanized and weighed. Volume and weight of prostate were measured. The averages of volume/weight and organ coefficient (average weight of prostate/average of body weight) were calculated, and statistical analysis performed (t test).

S=C=NCCc1ccccc1 [PEITC, phenethyl isothiocyanate]
Dissolution Rate [1]: 0%
binding activity to Sp1 specific oligonucleotide of nuclear proteins (EMSA) (Sp1 [2]): significantly reduced
pIC50 (LNCaP AI): 6.22
API % under 60° C. for 10 days [3]: 95.2%
expression of PSA (Western blot) (PSA): significantly inhibited
expression of GSTP1 (Western blot) (GSTP1): significantly restored; also recorded: effectively induce
expression of Sp1 (Western blot) (Sp1 [4]): significantly inhibited
Average Weight of Prostate (BPH; aqueous base formulation (Example 13-11), 1 mg/kg gavage): 0.75 g
Average Weight of Prostate (BPH; aqueous base formulation (Example 13-11), 4 mg/kg gavage): 0.83 g
Organ Coefficient (BPH; aqueous base formulation, 1 mg/kg): 0.21%
Organ Coefficient (BPH; aqueous base formulation, 4 mg/kg): 0.23%
Average Weight of Prostate (BPH; oil base formulation (Example 13-3), 1 mg/kg gavage): 0.91 g
Average Weight of Prostate (BPH; oil base formulation (Example 13-3), 4 mg/kg gavage): 0.79 g
Organ Coefficient (BPH; oil base formulation, 1 mg/kg): 0.25%
Organ Coefficient (BPH; oil base formulation, 4 mg/kg): 0.23%
